The target in the assay is T1, mTOR (Homo sapiens, UniProt P42345).
T1 construct: capturing of endogenously expressed target proteins from cell extracts by a bead-immobilized capturing ligand; endogenous in cells; host or cells: HuT-78 cells (ECACC 88041901), cell lysate
Nature of the assay: mTOR kinobeads competition-binding assay. Particulars: HuT-78 cell lysate. How it is done:
The affinity of test compounds for mTOR was determined in the mTOR kinobeads assay. This is a competition-binding assay based on the capturing of endogenously expressed target proteins from cell extracts by a bead-immobilized capturing ligand in the presence of the test compound.
HuT-78 cells (European Collection of Authenticated Cell Cultures, 88041901) were cultured according to vendor's instructions. Frozen cell pellets were homogenized in 3× pellet volumes lysis buffer (50 mM Tris-HCl, 0.4% (v/v) Igepal-CA630, 5% glycerol, 150 mM NaCl, 1.5 mM MgCl2, 25 mM NaF, 1 mM sodium vanadate, 1 mM DTT, pH 7.5, supplemented with EDTA-free protease inhibitor tablet (Roche)). The sample was dispersed using a Dounce homogenizer, kept rotating for 30 min at 4° C., and centrifuged for 10 min at 20000 gat 4° C. The supernatant was centrifuged again for 1 h at 145 000 g. The protein concentration was determined by Bradford assay (BioRad), aliquots were snap frozen in liquid nitrogen and stored at −80° C.
The capturing matrices were generated by derivatizing N-hydroxysuccinimide (NHS) activated Sepharose 4 beads (GE Healthcare) with the functionalized ligands Compound A and Compound C at a ligand density of 5 mM. Remaining NHS-groups were blocked with ethanolamine.
For the mTOR kinobeads assay the matrices were combined in a 1:1 ratio and equilibrated in DP buffer (50 mM Tris-HCl (pH 7.5), 0.4% (v/v) Igepal-CA630, 5% (v/v) glycerol, 150 mM NaCl, 1.5 mM MgCl2, 25 mM NaF, 1 mM Na3VO4, 1 mM dithiothreitol). All steps of the mTOR kinobeads assay were performed at 4° C. or on ice. The cell lysate was diluted with DP buffer to a final concentration of 5 mg/ml and a final detergent concentration of 0.4% (v/v) Igepal-CA630. For the assay 250 μg cell lysate and 2.5 μl capturing matrix per well (final assay volume: 75 μl) were incubated in the presence of test compounds in a 384-well filter plate (MultiScreenHTS HV Filter Plate, 0.45 μm, MZHVNOW50, Merck Millipore). Each plate contained 16 positive (100 μM Compound B) and 16 negative (2% v/v DMSO) control wells. Compounds were tested in a concentration-response applying 1:3 or 1:4 dilution steps for in total 11 data points. DMSO concentration was 2% (v/v). After 2 h incubation on an overhead shaker (Roto-Shake Genie, Scientific Industries Inc.) at 4° C. the non-bound fraction was removed by washing the beads with DP buffer. Proteins retained on the beads were eluted in SDS sample buffer (200 mM Tris (pH 7.4), 250 mM Trizma Base, 4% (w/v) SDS, 20% (v/v) glycerol, 0.01% (w/v) bromophenol blue, 50 mM dithiothreitol) into a collection plate (384 well polypropylene microplate, V-shape, Greiner, 781 280). Eluates were spotted on nitrocellulose membranes (400 nl per spot) using an automated pin-tool liquid transfer (Biomek FX, Beckman). After drying, the membranes were rehydrated in 20% (v/v) ethanol and blocked by incubation with Odyssey blocking buffer (LICOR, 927-40000) for 1 h at room temperature. Blocked membranes were incubated overnight at 25° C. with Odyssey blocking buffer supplemented with a specific anti-mTOR antibody (Cell Signaling, 2972; 1:500) and 0.4% TWEEN-20. Then the membranes were washed in PBST buffer and incubated for 60 minutes at room temperature with the detection antibody (IRDye™ labelled antibody from LI-COR) diluted in Odyssey blocking buffer (LICOR 927-40000) containing 0.2% TWEEN-20. Then the membranes were washed with PBST and finally rinsed twice with PBS buffer to remove residual Tween-20. The membranes were then scanned with the Odyssey® Infrared Imaging System (LI-COR Biosciences). Fluorescence signals were recorded and analyzed according to the instructions of the manufacturer. Concentration response curves were computed with the software Activity Base. All data were normalized to the mean of 16 high (negative control) and 16 low (positive control) control wells on each plate. […]

Setting [1] is: bead-immobilized capturing ligand, 2 h at 4° C., mean of multiple experiments, read-out: mean pIC50, mTOR kinobeads assay (converted).
Setting [2] is: selected compounds, mean, read-out: mTOR (mean pIC50 values when tested in the mTOR binding assay) (converted).

Where two headings read alike, the source gives them in different places. Bounds are passed on as bounds.

In the case of `CC[C@H]1COCCN1c1cc(CS(C)(=O)=O)nc(-c2ccc3[nH]c(CNC)cc3n2)n1` [Example 1, [(5-{4-[(3S)-3-ethylmorpholin-4-yl]-6-(methanesulfonylmethyl)pyrimidin-2-yl}-1H-pyrrolo[3,2-b]pyridin-2-yl)methyl](methyl)amine], the IC50 was at most 1.26 nM under setting [1] and 0.794 nM under setting [2].
Turning to `CC[C@H]1COCCN1c1cc(CS(C)(=O)=O)nc(-c2ccc3[nH]c(CO)cc3n2)n1` [Example 2, (S)-(5-(4-(3-ethylmorpholino)-6-((methylsulfonyl)methyl)pyrimidin-2-yl)-1H-pyrrolo[3,2-b]pyridin-2-yl)methanol], the IC50 under setting [1] was at most 1.26 nM.
With `CC[C@H]1COCCN1c1cc(C2(S(C)(=O)=O)CCOCC2)nc(-c2ccc3[nH]c(CO)cc3n2)n1` [Example 4, (5-{4-[(3S)-3-ethylmorpholin-4-yl]-6-(4-methanesulfonyloxan-4-yl)pyrimidin-2-yl}-1H-pyrrolo[3,2-b]pyridin-2-yl)methanol], under setting [1], the IC50 is at most 1.26 nM.
With `CC[C@H]1COCCN1c1cc(CS(N)(=O)=O)nc(-c2ccc3[nH]c(CNC)cc3n2)n1` [Example 6, {6-[(3S)-3-ethylmorpholin-4-yl]-2-{2-[(methylamino)methyl]-1H-pyrrolo[3,2-b]pyridin-5-yl}pyrimidin-4-yl}methanesulfonamide], the IC50 under setting [1] is at most 1.26 nM.
Turning to `CC[C@H]1COCCN1c1cc(CS(=O)(=O)N(C)C)nc(-c2ccc3[nH]c(CO)cc3n2)n1` [Example 9, 1-{6-[(3S)-3-ethylmorpholin-4-yl]-2-[2-(hydroxymethyl)-1H-pyrrolo[3,2-b]pyridin-5-yl]pyrimidin-4-yl}-N,N-dimethylmethanesulfonamide], the IC50 under setting [1] was at most 0.316 nM.
Still for that read-out and setting: then `CC[C@H]1COCCN1c1cc(CS(=O)(=O)NC)nc(-c2ccc3[nH]c(CO)cc3n2)n1` [Example 10, 1-{6-[(3S)-3-ethylmorpholin-4-yl]-2-[2-(hydroxymethyl)-1H-pyrrolo[3,2-b]pyridin-5-yl]pyrimidin-4-yl}-N-methylmethanesulfonamide], with at most 0.0794 nM; and `CC[C@H]1COCCN1c1cc(C2(S(C)(=O)=O)CCOCC2)nc(-c2ccc3[nH]c(C)cc3n2)n1` [Example 13, (3S)-3-ethyl-4-[6-(4-methanesulfonyloxan-4-yl)-2-{2-methyl-1H-pyrrolo[3,2-b]pyridin-5-yl}pyrimidin-4-yl]morpholine], with at most 1.26 nM.
With `CC[C@H]1COCC(=O)N1c1cc(CS(C)(=O)=O)nc(-c2ccc3[nH]c(C)cc3n2)n1` [Example 14, (5S)-5-ethyl-4-[6-(methanesulfonylmethyl)-2-{2-methyl-1H-pyrrolo[3,2-b]pyridin-5-yl}pyrimidin-4-yl]morpholin-3-one], the IC50 was at most 0.2 nM under setting [1] and 0.2 nM under setting [2].
On the same counts, the results for `CCc1cc2nc(-c3nc(CS(C)(=O)=O)cc(N4C(=O)COC[C@@H]4CC)n3)ccc2[nH]1` [Example 15, (5S)-5-ethyl-4-(2-{2-ethyl-1H-pyrrolo[3,2-b]pyridin-5-yl}-6-(methanesulfonylmethyl)pyrimidin-4-yl)morpholin-3-one] are at most 0.316 nM and 0.316 nM.
In the same order, the values of `CC[C@H]1COCCN1c1cc(CS(=O)(=O)N(C)C)nc(-c2ccc3[nH]c(CNC)cc3n2)n1` [Example 16, 1-{6-[(3S)-3-ethylmorpholin-4-yl]-2-{2-[(methylamino)methyl]-1H-pyrrolo[3,2-b]pyridin-5-yl}pyrimidin-4-yl}-N,N-dimethylmethanesulfonamide] are at most 1.26 nM and 0.631 nM.
For `CC[C@H]1COCCN1c1cc(C2(S(C)(=O)=O)CCNCC2)cc(-c2ccc3[nH]c(C)cc3n2)n1` [Example 18, (S)-3-ethyl-4-(6-(2-methyl-1H-pyrrolo[3,2-b]pyridin-5-yl)-4-(4-(methylsulfonyl)piperidin-4-yl)pyridin-2-yl)morpholine], the IC50 under setting [2] was 6.31 nM.
Regarding `CC[C@H]1COCCN1c1cc(CS(N)(=O)=O)cc(-c2ccc3[nH]c(C)cc3n2)n1` [Example 23, (S)-(2-(3-ethylmorpholino)-6-(2-methyl-1H-pyrrolo[3,2-b]pyridin-5-yl)pyridin-4-yl)methanesulfonamide], under setting [1], the IC50 is at most 1.26 nM.
Take `CC[C@H]1COCC(=O)N1c1cc(CS(C)(=O)=O)cc(-c2ccc3[nH]c(C)cc3n2)n1` [Example 24, (S)-5-ethyl-4-(6-(2-methyl-1H-pyrrolo[3,2-b]pyridin-5-yl)-4-((methylsulfonyl)methyl)pyridin-2-yl)morpholin-3-one]: the IC50 under setting [1] was at most 1.26 nM and the IC50 under setting [2] was 0.501 nM.
`CC[C@H]1COCC(=O)N1c1cc(C2(S(C)(=O)=O)CCOCC2)cc(-c2ccc3[nH]c(C)cc3n2)n1` [Example 25, (S)-5-ethyl-4-(6-(2-methyl-1H-pyrrolo[3,2-b]pyridin-5-yl)-4-(4-(methylsulfonyl)tetrahydro-2H-pyran-4-yl)pyridin-2-yl)morpholin-3-one]: the IC50 under setting [1] was at most 1.26 nM.
Regarding `CC[C@H]1COCC(=O)N1c1cc(C2(S(C)(=O)=O)CCOCC2)cc(-c2ccc3[nH]c(CO)cc3n2)n1` [Example 26], the IC50 under setting [1] was at most 0.316 nM.
The same measure, in the same setting: the figure for `CC[C@H]1COCC(=O)N1c1cc(CS(C)(=O)=O)cc(-c2ccc3[nH]c(CO)cc3n2)n1` [Example 27] is at most 1.26 nM.

These data come from US20220306623A1, “PYRIDYL OR PYRIMIDYL MTOR KINASE INHIBITORS” (GLAXOSMITHKLINE INTELLECTUAL PROPERTY DEVELOPMENT LIMITED, priority 2019, published 2022).
